Laboratory results taken from the NIST ThermoML archive (doi:10.1021/je400493x).
± gives the expanded uncertainty stated by the source. Each block holds one compound with its values, some of them ahead of it.

Experiments:
[1] = xn = mol fraction of the nth substance listed; conditions: 298.15 K, 100 kPa, Liquid
[2] = 298.15 K, Liquid mixture 1, Drop volume
[3] = 298.15 K; 100 kPa; Liquid

Compound: CCCCCCCCCCCC [dodecane] + CC(C)CCOP(=O)(OCCC(C)C)OCCC(C)C
- mass density ([1]; x2 = 0): 745.29 ± 4.2 kg/m3
- viscosity ([1]; x2 = 0): 1.347 ± 0.033 mPa·s

Compound: CCCCCCCCCCCC [dodecane] + O
- interfacial tension ([2]; 100 kPa): 52.6 ± 0.8 mN/m

Compound: CCCCCCCCCCCC [dodecane]
- mass density [3]: 745.29 ± 4.2 kg/m3
- viscosity [3]: 1.347 ± 0.033 mPa·s

The remaining lines, values ahead:

- mass density ([1]; x1 = 0.0999): 765.49 ± 4 kg/m3
- viscosity ([1]; x1 = 0.0999): 1.488 ± 0.035 mPa·s
- mass density ([1]; x1 = 0.1998): 785.78 ± 3.7 kg/m3
- viscosity ([1]; x1 = 0.1998): 1.678 ± 0.037 mPa·s
- mass density ([1]; x1 = 0.3001): 805.91 ± 3.5 kg/m3
- viscosity ([1]; x1 = 0.3001): 1.896 ± 0.04 mPa·s
- mass density ([1]; x1 = 0.4002): 826.05 ± 3.2 kg/m3
- viscosity ([1]; x1 = 0.4002): 2.119 ± 0.043 mPa·s
- mass density ([1]; x1 = 0.5001): 846.25 ± 3 kg/m3
- viscosity ([1]; x1 = 0.5001): 2.391 ± 0.047 mPa·s
- mass density ([1]; x1 = 0.5999): 866.75 ± 2.7 kg/m3
- viscosity ([1]; x1 = 0.5999): 2.674 ± 0.051 mPa·s
- mass density ([1]; x1 = 0.7002): 888.26 ± 2.5 kg/m3
- viscosity ([1]; x1 = 0.7002): 3.015 ± 0.056 mPa·s
- mass density ([1]; x1 = 0.7998): 909.12 ± 2.2 kg/m3
- viscosity ([1]; x1 = 0.7998): 3.375 ± 0.062 mPa·s
- mass density ([1]; x1 = 0.9001): 929.41 ± 2 kg/m3
- viscosity ([1]; x1 = 0.9001): 3.804 ± 0.068 mPa·s
- mass density ([1]; x1 = 1): 946.95 ± 1.8 kg/m3
- viscosity ([1]; x1 = 1): 4.267 ± 0.076 mPa·s
Compound: CC(C)CCOP(=O)(OCCC(C)C)OCCC(C)C [triisopentyl phosphate] + CCCCCCCCCCCC

- mass density [3]: 946.95 ± 1.8 kg/m3
- viscosity [3]: 4.267 ± 0.076 mPa·s
Compound: CC(C)CCOP(=O)(OCCC(C)C)OCCC(C)C [triisopentyl phosphate]

- interfacial tension ([2]; 101 kPa): 14.4 ± 0.8 mN/m
Compound: CC(C)CCOP(=O)(OCCC(C)C)OCCC(C)C [triisopentyl phosphate] + O
